Paper PMC2778250 (Journal of medicinal chemistry, 2009)

Tests used:
LcrF = LcrF (Yersinia pestis, UniProt P28808); assay: biochemical; format: binding; settings: for IC50: LcrF IC50
SlyA = target: T1, SlyA (Salmonella typhimurium, UniProt P40676); assay: biochemical; format: binding, Salmonella spp.
T1 sequence (P40676 1-144): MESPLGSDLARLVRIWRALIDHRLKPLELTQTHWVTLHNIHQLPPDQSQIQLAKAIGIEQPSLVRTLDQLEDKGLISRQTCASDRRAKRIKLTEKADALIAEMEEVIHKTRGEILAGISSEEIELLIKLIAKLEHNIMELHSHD

Y. pseudotuberculosis = format: cell-based
S. aureus = assay: In vitro antimicrobial susceptibility test; format: cell-based
E. coli = assay: In vitro antimicrobial susceptibility test; format: cell-based
[1] = tested on: pET-15b supercoiled plasmid DNA; assay: In vitro DNA binding assay; settings: 100 μg/mL; agarose gel electrophoresis
[2] = tested on: uninfected J774A.1 murine macrophages; settings: 50μg/mL
[3] = tested on: T3SS-dependent Y. pseudotuberculosis killing of macrophages

LcrF, sequence (P28808 whole entry, looked up): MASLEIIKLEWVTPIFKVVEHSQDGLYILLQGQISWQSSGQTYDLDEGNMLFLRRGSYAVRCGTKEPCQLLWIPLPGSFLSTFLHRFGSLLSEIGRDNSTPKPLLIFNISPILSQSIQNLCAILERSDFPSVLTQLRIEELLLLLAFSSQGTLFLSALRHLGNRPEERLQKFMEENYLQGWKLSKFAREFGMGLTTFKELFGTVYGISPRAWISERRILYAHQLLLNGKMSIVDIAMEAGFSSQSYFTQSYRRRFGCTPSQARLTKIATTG

## O=C(/C=C/c1ccc(-n2cnnc2)cc1)Nc1ccc(-c2nc3ccc([N+](=O)[O-])cc3n2O)cc1 [Compound 27]
LcrF
  inhibitory activity in LcrF-DNA binding assay (in words): loss of activity

## Cc1cc2nc(-c3ccc(NC(=O)/C=C/c4ccc(F)cc4)cc3)n(O)c2cc1[N+](=O)[O-] [Compound 36, (E)-3-(4-Fluoro-phenyl)-N-[4-(1-hydroxy-5-methyl-6-nitro-1H-benzoimidazol-2-yl)-phenyl]-acrylamide]
LcrF
  IC50: ≤ 10 µM
SlyA
  IC50: > 52 µM
Y. pseudotuberculosis
  antibacterial activity (in words): no measurable antibacterial activity
S. aureus
  antibacterial activity (in words): no measurable antibacterial activity
E. coli
  antibacterial activity (in words): no measurable antibacterial activity
[1]
  non-specific DNA binding (effect on plasmid migration): non-DNA binding
[2]
  intrinsic toxicity to uninfected macrophages: non-cytotoxic

## N#Cc1ccc(/C=C/C(=O)Nc2ccc(-c3nc4ccc([N+](=O)[O-])cc4n3O)cc2)cc1 [Compound 19]
[3]
  inhibition of Y. pseudotuberculosis cytotoxicity in whole cell assay (in words): strongly inhibited cytotoxicity

## O=C(/C=C/c1ccc(F)cc1)Nc1ccc(-c2nc3ccc([N+](=O)[O-])cc3n2O)cc1 [Compound 14, (E)-3-(4-Fluoro-phenyl)-N-[4-(1-hydroxy-6-nitro-1H-benzoimidazol-2-yl)-phenyl]-acrylamide]
LcrF
  IC50: ≤ 10 µM
SlyA
  IC50: > 53.8 µM
Y. pseudotuberculosis
  antibacterial activity (in words): no measurable antibacterial activity
S. aureus
  antibacterial activity (in words): no measurable antibacterial activity
E. coli
  antibacterial activity (in words): no measurable antibacterial activity
[1]
  non-specific DNA binding (effect on plasmid migration): non-DNA binding
[2]
  intrinsic toxicity to uninfected macrophages: non-cytotoxic

## CCOc1ccc(-c2nc3ccc(-c4nc5ccc(N6CCN(C)CC6)cc5[nH]4)cc3[nH]2)cc1 [Hoechst 33342, reference compound]
[1]
  non-specific DNA binding (effect on plasmid migration): faint smear on the gel

## Cc1ccc(/C=C/C(=O)Nc2ccc(-c3nc4ccc([N+](=O)[O-])cc4n3O)cc2)cc1 [Compound 20, (E)-N-[4-(1-Hydroxy-6-nitro-1H-benzoimidazol-2-yl)-phenyl]-3-p-tolyl-acrylamide]
[3]
  inhibition of Y. pseudotuberculosis cytotoxicity in whole cell assay (in words): relatively inactive

## CC(C)c1ccc(/C=C/C(=O)Nc2ccc(-c3nc4ccc([N+](=O)[O-])cc4n3O)cc2)cc1 [Compound 25, (E)-N-[4-(1-Hydroxy-6-nitro-1H-benzoimidazol-2-yl)-phenyl]-3-(4-isopropyl-phenyl)-acrylamide]
LcrF
  inhibitory activity in LcrF-DNA binding assay (in words): loss of activity

## O=C(/C=C/c1ccc(F)cc1)Nc1ccc(-c2nc3ccc([N+](=O)[O-])cc3n2O)nc1 [Compound 31, (E)-3-(4-Fluoro-phenyl)-N-[6-(1-hydroxy-6-nitro-1H-benzoimidazol-2-yl)-pyridin-3-yl]-acrylamide]
[3]
  inhibition of Y. pseudotuberculosis cytotoxicity in whole cell assay (in words): devoid of any measurable activity

## COc1ccc(/C=C/C(=O)Nc2ccc(-c3nc4ccc([N+](=O)[O-])cc4n3O)cc2)cc1 [Compound 22, (E)-N-[4-(1-Hydroxy-6-nitro-1H-benzoimidazol-2-yl)-phenyl]-3-(4-methoxy-phenyl)-acrylamide]
LcrF
  IC50: ≤ 10 µM
SlyA
  IC50: > 55.2 µM
Y. pseudotuberculosis
  antibacterial activity (in words): no measurable antibacterial activity
S. aureus
  antibacterial activity (in words): no measurable antibacterial activity
E. coli
  antibacterial activity (in words): no measurable antibacterial activity
[1]
  non-specific DNA binding (effect on plasmid migration): non-DNA binding
[2]
  intrinsic toxicity to uninfected macrophages: non-cytotoxic

## CN(C)CCN(C)c1cc2nc(-c3ccc(NC(=O)/C=C/c4ccc(F)cc4)cc3)n(O)c2cc1[N+](=O)[O-] [Compound 40]
[1]
  non-specific DNA binding (effect on plasmid migration): non-specific binding to DNA

## O=C(/C=C/c1ccc(-c2c[nH]cn2)cc1)Nc1ccc(-c2nc3ccc([N+](=O)[O-])cc3n2O)cc1 [Compound 28]
LcrF
  inhibitory activity in LcrF-DNA binding assay (in words): loss of activity

## COc1ccc(/C=C/C(=O)Nc2ccc(-c3nc4ccc([N+](=O)[O-])cc4n3O)cc2)c(OC)c1 [Compound 24, (E)-3-(2,4-Dimethoxy-phenyl)-N-[4-(1-hydroxy-6-nitro-1H-benzoimidazol-2-yl)-phenyl]-acrylamide]
LcrF
  inhibitory activity in LcrF-DNA binding assay (in words): loss of activity

## O=C(Cc1ccc(F)cc1)Nc1ccc(-c2nc3ccc([N+](=O)[O-])cc3n2O)cc1 [Compound 12, 2-(4-Fluoro-phenyl)-N-[4-(1-hydroxy-6-nitro-1H-benzoimidazol-2-yl)-phenyl]-acetamide]
LcrF
  inhibitory activity in LcrF-DNA binding assay (in words): no measurable activity

## O=C(CCc1ccc(F)cc1)Nc1ccc(-c2nc3ccc([N+](=O)[O-])cc3n2O)cc1 [Compound 13, 3-(4-Fluoro-phenyl)-N-[4-(1-hydroxy-6-nitro-1H-benzoimidazol-2-yl)-phenyl]-propionamide]
LcrF
  inhibitory activity in LcrF-DNA binding assay (in words): no measurable activity

## O=C(NCc1ccc(-c2nc3ccc([N+](=O)[O-])cc3n2O)cc1)c1ccc(F)cc1 [Compound 11, 4-Fluoro-N-[4-(1-hydroxy-6-nitro-1H-benzoimidazol-2-yl)-benzyl]-benzamide]
LcrF
  inhibitory activity in LcrF-DNA binding assay (in words): no measurable activity
